Where “and” joins values, the source holds several entries; their conditions need not be identical. Equal entries are not always repeated.
Tests used:
[1] = target: Sodium-dependent dopamine transporter (Rattus norvegicus, UniProt P23977)
[2] = target: Sodium-dependent serotonin transporter (Rattus norvegicus, UniProt P31652)
[3] = target: 5-hydroxytryptamine receptor 2B (Homo sapiens, UniProt P41595)
[4] = target: Norepinephrine transporter (Rattus norvegicus, UniProt Q9JIA2)
D(3) dopamine receptor = D(3) dopamine receptor (Homo sapiens, UniProt P35462)
[5] = target: 5-hydroxytryptamine receptor 1A (Homo sapiens, UniProt P08908)
[6] = target: 5-hydroxytryptamine receptor 6 (Homo sapiens, UniProt P50406)
[7] = target: Sodium-dependent dopamine transporter (Homo sapiens, UniProt Q01959)
[8] = target: Sodium-dependent noradrenaline transporter (Homo sapiens, UniProt P23975)
Histamine H1 receptor = Histamine H1 receptor (Homo sapiens, UniProt P35367)
[9] = target: Gamma-aminobutyric acid (GABA) B receptor 1 (Rattus norvegicus, UniProt Q6MFX8)
Cannabinoid receptor 1 = Cannabinoid receptor 1 (Rattus norvegicus, UniProt P20272)
[10] = target: 5-hydroxytryptamine receptor 1B (Homo sapiens, UniProt P28222)
[11] = target: 5-hydroxytryptamine receptor 1D (Homo sapiens, UniProt P28221)
[12] = target: 5-hydroxytryptamine receptor 7 (Homo sapiens, UniProt P34969)
[13] = target: Beta-1 adrenergic receptor (Rattus norvegicus, UniProt P18090)
D(2) dopamine receptor = D(2) dopamine receptor (Homo sapiens, UniProt P14416)
[14] = target: Alpha-1A adrenergic receptor (Homo sapiens, UniProt P35348)
[15] = target: Prostaglandin E2 receptor EP4 subtype (Homo sapiens, UniProt P35408)
D(1A) dopamine receptor = D(1A) dopamine receptor (Homo sapiens, UniProt P21728)
[16] = target: 5-hydroxytryptamine receptor 5A (Homo sapiens, UniProt P47898)
[17] = target: Prostaglandin E2 receptor EP3 subtype (Homo sapiens, UniProt P43115)
[18] = target: 5-hydroxytryptamine receptor 2C (Rattus norvegicus, UniProt P08909)
D(1B) dopamine receptor = D(1B) dopamine receptor (Homo sapiens, UniProt P21918)
[19] = target: Metabotropic glutamate receptor 4 (Rattus norvegicus, UniProt P31423)
[20] = target: Metabotropic glutamate receptor 8 (Rattus norvegicus, UniProt P70579)
[21] = target: Metabotropic glutamate receptor 2 (Homo sapiens, UniProt Q14416)
[22] = target: Alpha-2C adrenergic receptor (Homo sapiens, UniProt P18825)
[23] = target: Muscarinic acetylcholine receptor M2 (Homo sapiens, UniProt P08172)
[24] = target: Acetylcholine receptor subunit alpha (Homo sapiens, UniProt P02708)
[25] = target: Muscarinic acetylcholine receptor M1 (Homo sapiens, UniProt P11229)
[26] = target: Gamma-aminobutyric acid receptor subunit alpha-1 (Rattus norvegicus, UniProt P62813)
[27] = target: Voltage-dependent L-type calcium channel subunit alpha-1C (Rattus norvegicus, UniProt P22002)
[28] = target: Muscarinic acetylcholine receptor M4 (Homo sapiens, UniProt P08173)
[29] = target: Neuronal acetylcholine receptor subunit alpha-3 (Homo sapiens, UniProt P32297)
D(4) dopamine receptor = D(4) dopamine receptor (Rattus norvegicus, UniProt P30729)
[30] = target: Glutamate receptor ionotropic, NMDA 1 (Rattus norvegicus, UniProt P35439)
[31] = target: Metabotropic glutamate receptor 1 (Rattus norvegicus, UniProt P23385)
[32] = target: Muscarinic acetylcholine receptor M5 (Homo sapiens, UniProt P08912)
[33] = target: Beta-2 adrenergic receptor (Rattus norvegicus, UniProt P10608)
[34] = target: Alpha-2A adrenergic receptor (Homo sapiens, UniProt P08913)

5-hydroxytryptamine receptor 2B, sequence (P41595 whole entry): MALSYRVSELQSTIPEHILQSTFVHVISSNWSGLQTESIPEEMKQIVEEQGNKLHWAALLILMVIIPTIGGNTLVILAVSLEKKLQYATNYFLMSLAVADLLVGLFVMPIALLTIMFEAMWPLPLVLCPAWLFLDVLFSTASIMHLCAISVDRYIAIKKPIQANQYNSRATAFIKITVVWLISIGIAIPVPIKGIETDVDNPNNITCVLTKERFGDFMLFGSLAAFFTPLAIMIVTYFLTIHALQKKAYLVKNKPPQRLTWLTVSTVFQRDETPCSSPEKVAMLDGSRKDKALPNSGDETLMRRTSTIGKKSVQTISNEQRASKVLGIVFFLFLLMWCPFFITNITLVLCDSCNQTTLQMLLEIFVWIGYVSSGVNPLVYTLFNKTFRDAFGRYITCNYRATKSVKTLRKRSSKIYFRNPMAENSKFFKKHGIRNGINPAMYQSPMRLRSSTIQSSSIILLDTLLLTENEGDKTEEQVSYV
Sodium-dependent dopamine transporter (Rattus norvegicus, UniProt P23977), sequence (P23977 whole entry): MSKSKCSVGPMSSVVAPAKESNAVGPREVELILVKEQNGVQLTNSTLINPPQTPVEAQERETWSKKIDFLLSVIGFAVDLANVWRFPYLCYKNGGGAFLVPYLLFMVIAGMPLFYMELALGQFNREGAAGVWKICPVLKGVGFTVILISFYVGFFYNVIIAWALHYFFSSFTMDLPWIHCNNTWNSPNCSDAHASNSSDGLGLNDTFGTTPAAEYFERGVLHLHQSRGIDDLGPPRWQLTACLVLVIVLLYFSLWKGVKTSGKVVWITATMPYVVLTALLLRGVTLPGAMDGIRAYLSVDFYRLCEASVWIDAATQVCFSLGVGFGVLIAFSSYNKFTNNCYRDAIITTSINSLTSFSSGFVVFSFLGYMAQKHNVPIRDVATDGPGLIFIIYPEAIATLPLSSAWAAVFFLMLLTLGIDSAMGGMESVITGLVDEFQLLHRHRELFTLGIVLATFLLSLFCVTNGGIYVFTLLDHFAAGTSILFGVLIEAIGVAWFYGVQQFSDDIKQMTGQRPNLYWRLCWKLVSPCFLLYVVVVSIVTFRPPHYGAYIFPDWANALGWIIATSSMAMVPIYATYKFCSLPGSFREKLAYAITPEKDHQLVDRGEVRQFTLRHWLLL
Sodium-dependent serotonin transporter, sequence (P31652 whole entry): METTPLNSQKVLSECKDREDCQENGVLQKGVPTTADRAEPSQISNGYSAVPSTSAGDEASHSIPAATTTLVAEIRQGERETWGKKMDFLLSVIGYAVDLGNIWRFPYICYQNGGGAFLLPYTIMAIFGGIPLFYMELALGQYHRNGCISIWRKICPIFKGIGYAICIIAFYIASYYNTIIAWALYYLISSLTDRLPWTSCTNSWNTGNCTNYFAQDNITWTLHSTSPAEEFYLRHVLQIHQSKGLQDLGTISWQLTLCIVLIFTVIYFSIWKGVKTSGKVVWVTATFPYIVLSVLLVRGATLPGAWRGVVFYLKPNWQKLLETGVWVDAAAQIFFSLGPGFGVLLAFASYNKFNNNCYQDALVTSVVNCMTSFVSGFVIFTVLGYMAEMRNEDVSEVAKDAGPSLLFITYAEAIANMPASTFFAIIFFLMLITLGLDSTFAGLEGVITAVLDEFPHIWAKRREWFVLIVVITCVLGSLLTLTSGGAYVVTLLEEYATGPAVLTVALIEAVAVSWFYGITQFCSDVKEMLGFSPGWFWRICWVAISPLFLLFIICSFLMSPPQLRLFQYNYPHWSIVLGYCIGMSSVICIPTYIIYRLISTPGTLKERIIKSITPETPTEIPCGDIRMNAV
Sodium-dependent noradrenaline transporter, sequence (P23975 whole entry): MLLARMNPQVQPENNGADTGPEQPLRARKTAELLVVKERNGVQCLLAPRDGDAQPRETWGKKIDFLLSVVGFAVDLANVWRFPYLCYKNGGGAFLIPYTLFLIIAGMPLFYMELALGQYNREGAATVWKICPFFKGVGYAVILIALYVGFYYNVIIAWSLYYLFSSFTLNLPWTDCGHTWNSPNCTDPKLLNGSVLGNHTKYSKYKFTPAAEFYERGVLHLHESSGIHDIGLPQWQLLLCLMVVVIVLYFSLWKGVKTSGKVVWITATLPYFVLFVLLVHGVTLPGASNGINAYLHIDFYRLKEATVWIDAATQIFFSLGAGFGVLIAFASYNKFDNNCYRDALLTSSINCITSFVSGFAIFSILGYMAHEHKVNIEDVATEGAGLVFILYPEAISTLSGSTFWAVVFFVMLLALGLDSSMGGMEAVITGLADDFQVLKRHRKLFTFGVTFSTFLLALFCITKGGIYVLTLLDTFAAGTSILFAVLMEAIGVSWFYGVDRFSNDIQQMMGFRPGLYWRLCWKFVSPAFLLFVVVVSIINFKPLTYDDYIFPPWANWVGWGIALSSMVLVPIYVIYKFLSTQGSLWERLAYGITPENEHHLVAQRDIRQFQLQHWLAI
Prostaglandin E2 receptor EP4 subtype, sequence (P35408 whole entry): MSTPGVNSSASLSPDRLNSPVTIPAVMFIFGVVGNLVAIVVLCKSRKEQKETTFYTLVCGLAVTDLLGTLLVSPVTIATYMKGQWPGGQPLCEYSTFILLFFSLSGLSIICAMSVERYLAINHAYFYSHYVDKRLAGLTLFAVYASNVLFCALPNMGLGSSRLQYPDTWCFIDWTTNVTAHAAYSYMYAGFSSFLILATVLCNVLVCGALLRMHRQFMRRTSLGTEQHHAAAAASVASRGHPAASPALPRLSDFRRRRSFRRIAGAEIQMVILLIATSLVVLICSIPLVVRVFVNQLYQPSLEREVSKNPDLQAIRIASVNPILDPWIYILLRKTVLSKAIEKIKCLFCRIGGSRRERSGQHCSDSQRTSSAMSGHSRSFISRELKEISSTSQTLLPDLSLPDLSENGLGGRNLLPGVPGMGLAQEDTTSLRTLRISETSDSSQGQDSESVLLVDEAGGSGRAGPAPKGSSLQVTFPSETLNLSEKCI
D(4) dopamine receptor, sequence (P30729 whole entry): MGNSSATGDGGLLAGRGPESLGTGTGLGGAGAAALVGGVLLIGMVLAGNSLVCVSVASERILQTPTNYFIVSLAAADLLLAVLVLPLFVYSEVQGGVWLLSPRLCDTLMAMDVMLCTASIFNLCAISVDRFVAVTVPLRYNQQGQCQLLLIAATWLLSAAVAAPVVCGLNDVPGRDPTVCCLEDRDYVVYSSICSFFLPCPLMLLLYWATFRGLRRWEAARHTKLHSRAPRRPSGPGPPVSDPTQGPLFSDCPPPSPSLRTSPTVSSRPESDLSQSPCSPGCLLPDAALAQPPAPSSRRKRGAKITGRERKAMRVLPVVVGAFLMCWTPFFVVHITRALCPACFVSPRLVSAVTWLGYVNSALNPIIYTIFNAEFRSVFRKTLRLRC
Beta-2 adrenergic receptor, sequence (P10608 whole entry): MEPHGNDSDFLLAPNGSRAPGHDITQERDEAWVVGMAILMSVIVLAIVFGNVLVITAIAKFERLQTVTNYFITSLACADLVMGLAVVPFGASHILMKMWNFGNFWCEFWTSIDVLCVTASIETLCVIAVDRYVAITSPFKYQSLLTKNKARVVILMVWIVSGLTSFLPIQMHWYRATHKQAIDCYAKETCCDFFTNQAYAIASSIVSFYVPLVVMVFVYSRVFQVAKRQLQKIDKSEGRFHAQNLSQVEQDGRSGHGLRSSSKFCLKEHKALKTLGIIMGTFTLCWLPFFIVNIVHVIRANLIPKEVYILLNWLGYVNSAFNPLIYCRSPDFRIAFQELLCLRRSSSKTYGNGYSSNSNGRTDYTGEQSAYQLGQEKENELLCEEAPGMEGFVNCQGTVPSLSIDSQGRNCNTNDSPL
Alpha-1A adrenergic receptor, sequence (P35348 whole entry): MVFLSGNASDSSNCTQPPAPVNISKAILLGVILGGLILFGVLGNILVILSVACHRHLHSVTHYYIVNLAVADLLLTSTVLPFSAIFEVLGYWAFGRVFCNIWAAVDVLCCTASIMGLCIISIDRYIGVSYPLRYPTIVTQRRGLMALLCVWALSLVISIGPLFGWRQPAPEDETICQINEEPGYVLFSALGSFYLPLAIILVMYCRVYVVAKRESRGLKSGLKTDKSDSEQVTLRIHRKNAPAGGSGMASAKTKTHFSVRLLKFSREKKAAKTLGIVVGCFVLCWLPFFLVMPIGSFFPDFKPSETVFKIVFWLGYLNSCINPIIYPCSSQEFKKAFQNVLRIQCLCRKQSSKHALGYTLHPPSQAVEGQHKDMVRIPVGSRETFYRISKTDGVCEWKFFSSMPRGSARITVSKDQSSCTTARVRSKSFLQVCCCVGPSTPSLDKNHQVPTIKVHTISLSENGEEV
5-hydroxytryptamine receptor 1B, sequence (P28222 whole entry): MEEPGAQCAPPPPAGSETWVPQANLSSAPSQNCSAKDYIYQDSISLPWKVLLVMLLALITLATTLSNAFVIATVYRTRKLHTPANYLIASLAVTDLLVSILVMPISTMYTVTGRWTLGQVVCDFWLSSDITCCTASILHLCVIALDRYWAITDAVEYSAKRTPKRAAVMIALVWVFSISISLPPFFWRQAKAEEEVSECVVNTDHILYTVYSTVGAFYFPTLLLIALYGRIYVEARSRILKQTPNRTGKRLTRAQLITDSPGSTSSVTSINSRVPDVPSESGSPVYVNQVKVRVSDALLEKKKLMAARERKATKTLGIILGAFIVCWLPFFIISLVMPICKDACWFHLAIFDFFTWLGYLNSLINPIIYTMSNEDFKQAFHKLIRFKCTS
Beta-1 adrenergic receptor, sequence (P18090 whole entry): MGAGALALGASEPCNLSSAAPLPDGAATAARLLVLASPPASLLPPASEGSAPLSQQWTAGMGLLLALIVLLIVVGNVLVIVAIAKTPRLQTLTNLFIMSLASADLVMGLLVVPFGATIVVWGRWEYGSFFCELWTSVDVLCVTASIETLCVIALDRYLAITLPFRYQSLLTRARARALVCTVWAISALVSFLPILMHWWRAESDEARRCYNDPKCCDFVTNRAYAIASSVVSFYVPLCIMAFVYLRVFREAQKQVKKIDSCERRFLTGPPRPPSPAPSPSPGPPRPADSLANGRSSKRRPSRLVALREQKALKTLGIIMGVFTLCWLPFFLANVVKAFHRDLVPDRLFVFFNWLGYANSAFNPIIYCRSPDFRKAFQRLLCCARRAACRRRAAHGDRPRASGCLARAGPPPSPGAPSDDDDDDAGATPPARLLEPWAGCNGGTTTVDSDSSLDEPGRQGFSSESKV

Work on `C[C@H](N)Cc1ccc2c(c1)OCO2` [NSC_3050061] yielded a Ki [1] of 98 nM, a Ki [2] of 100 nM and a Ki [3] of 100 nM. For the same compound, the Ki [4] was 50 nM.

Compound `CN[C@@H](C)Cc1ccc2c(c1)OCO2` [MDMA, R(-)] has a Ki [1] of 3700 nM, a Ki [2] of 340 nM and a Ki [3] of 900 nM. For the same compound, the Ki [4] was 560 nM.

In the case of `CC(N)Cc1cccc(C(F)(F)F)c1` (stereo unspecified) [NSC_15897], the Ki [1] is reported as 1900 nM, the Ki [2] is reported as 104 nM and the Ki [3] is reported as 15 nM and 60 nM. It also gave a Ki [4] of 170 nM.

`C[C@@H](N)Cc1ccc2c(c1)OCO2` [NSC_3046161] showed a Ki [1] of 900 nM, a Ki [2] of 310 nM and a Ki [3] of 150 nM. It also gave a Ki [4] of 290 nM.

For `CC(N)Cc1ccc2c(c1)OCO2` (stereo unspecified), the Ki [1] was 190 nM, the Ki [2] was 160 nM and the Ki [3] was 100 nM and 190 nM. It also gave a Ki [4] of 108 nM.

In the case of `CCNC(C)Cc1cccc(C(F)(F)F)c1` (stereo unspecified) [NSC_3337], the Ki [1] is reported as > 10000 nM.

For `CN[C@@H](C)Cc1ccc2c(c1)OCO2` [DL-(3,4-Methylenedioxy)methamphetamine], the Ki (D(3) dopamine receptor) was > 10000 nM, the Ki [5] was > 10000 nM and the Ki [6] was > 10000 nM. For the same compound, the Ki [1] was 278 nM, the Ki [2] was 72 nM and the Ki [7] was > 10000 nM. The Ki [8] was > 10000 nM, the Ki (Histamine H1 receptor) was 2140 nM and the Ki [9] was > 10000 nM. For the same compound, the Ki (Cannabinoid receptor 1) was > 10000 nM, the Ki [10] was > 10000 nM and the Ki [11] was > 10000 nM. The Ki [3] was 500 nM and 2000 nM, the Ki [12] was > 10000 nM and the Ki [13] was > 10000 nM. The Ki (D(2) dopamine receptor) was > 10000 nM, the Ki [14] was > 10000 nM and the Ki [15] was > 10000 nM. For the same compound, the Ki (D(1A) dopamine receptor) was > 10000 nM, the Ki [16] was > 10000 nM and the Ki [17] was > 10000 nM. The Ki [18] was > 10000 nM, the Ki (D(1B) dopamine receptor) was > 10000 nM and the Ki [19] was > 10000 nM. The Ki [20] was > 10000 nM, the Ki [21] was > 10000 nM and the Ki [22] was 1120 nM. The Ki [23] was > 10000 nM, the Ki [24] was > 10000 nM and the Ki [25] was > 10000 nM. The Ki [26] was > 10000 nM, the Ki [27] was 1200 nM and the Ki [28] was 8240 nM. The Ki [29] was > 10000 nM, the Ki (D(4) dopamine receptor) was > 10000 nM and the Ki [30] was > 10000 nM. For the same compound, the Ki [31] was > 10000 nM, the Ki [4] was 110 nM and the Ki [32] was 6340 nM. For the same compound, the Ki [33] was > 10000 nM and the Ki [34] was 2530 nM.

With `NCCc1c[nH]c2ccc(O)cc12` [[3H]-5-HT] the Ki [1] was > 10000 nM and the Ki [4] was > 10000 nM.

With `CN[C@H](C)Cc1ccc2c(c1)OCO2` [NSC_126235] the Ki [1] was 142 nM, the Ki [2] was 74 nM and the Ki [3] was 6000 nM. It also gave a Ki [4] of 136 nM.

Work on `CCC(CO)NC(=O)C1C=C2c3cccc4[nH]cc(c34)CC2N(C)C1` (stereo unspecified) [NSC_8226] yielded a Ki [3] of 0.8 nM.

`CN1CC(C(=O)NC2(C)OC3(O)C4CCCN4C(=O)C(Cc4ccccc4)N3C2=O)CC2c3cccc4[nH]cc(c34)CC21` (stereo unspecified) [NSC_3066] was tested, and the Ki [3] was 15.2 nM and 30 nM.

For `CCCN1CC(CSC)CC2c3cccc4[nH]cc(c34)CC21` (stereo unspecified) [CAS_66104-22-1], the Ki [3] was 14 nM and 53 nM.

Reference: BindingDB's records for doi:10.1124/mol.63.6.1223 (Case Western Reserve University, 2003)
